These results are taken from US20070087376A1, “Splice variants of pre-mRNA transcripts as biomarkers in idiopathic neurodegenerative diseases” (priority 2004, published 2007).

Molecules are shown by their SMILES.

Test [1] deals with transcripts that have splice variants. The following applies: mptp study, cited from earlier work.
Test [2] relates to AChE splice variants (AChE-R and AChE-S mRNA). Description: AChE splice variant mRNA levels in blood of MPTP-treated mice, RT-PCR. The class given is in vivo, mouse. The source says:
(§1) Mice were then euthanized either at 3 days or 3 weeks after treatment. Two time periods were selected in order to characterizing splicing events in the blood over time. Controls for the acute group include mice treated with saline and, for the chronic experiments, mice treated with probenecid or saline.
(§2) Blood specimens for assaying RNA from the mice described in Example 1 above were obtained as follows. Mice were sacrificed by cervical dislocation and the heart lacerated to release the blood. Approximately 50 μl of 0.05 M EDTA, pH 8.0 was added to the chest cavity to prevent the blood from coagulating. Blood was collected in a sterile 1 ml syringe that was initially rinsed in 0.50 M EDTA pH 8.0.
(§3) RNA from blood samples obtained as described in Example 2 was separated on a 1.8% agarose gel and stained with 5 μl of ethidium bromide (10 mg/ml stock) diluted into 10 ml of a TAE buffer (pH 8.5 40 mM Tris.acetate, 2 mM Na2EDTA.2H2O. After staining, the RNA was visualized on a UV light box and the 18S RNA band was quantified. The image was captured using a Kodak EDAS290 system (Kodak, Rochester, N.Y.) and the Kodak 1D Image Analysis software (Kodak, Rochester, N.Y.) was used to quantify. Other similar cameras and analysis softwares will also work.
(§4) Splice variant mRNA was assayed using reverse transcriptase polymerase chain reactions (RT-PCR) as described in U.S. patent application Ser. No.: 11/215,842. PCR conditions for amplification of FosB, RGS9, AchE, Ania6 and NDUFS4 are the same as disclosed in U.S. patent application Ser. No.: 11/215,842 except different kits were used for FosB and RGS9 compared to the other 3 transcripts.
• 1. 95° C. 8 minutes • 2. 95° C. 30 seconds • 3. 57° C. 30 seconds • 4. 72° C. 30 seconds • 5. Repeat from step 2 35 times • 6. 72° C. 10 minutes RGS9 (SYBR green, Applied Biosystems, Foster City, Calif.) • 1. 95° C. 8 minutes • 2. 95° C. 30 seconds • 3. 54° C. 30 seconds • 4. 72° C. 30 seconds • 5. Repeat from step 2 35 times • 6. 72° C. 10 minutes AChE (go Taq Green, Promega, Madison, Wis.) • 1. 95° C. 5 minutes • 2. 95° C. 30 seconds • 3. 61° C. 30 seconds • 4. 72° C. 30 seconds • 5. Repeat from step 2 30 times • 6. 72° C. 5 minutes NDUFS4 (go Taq Green, Promega, Madison, Wis.) • 1. 95° C. 5 minutes • 2. 95° C. 30 seconds • 3. 64° C. 30 seconds • 4. 72° C. 30 seconds • 5. Repeat from step 2 30 times • 6. 72° C. 5 minutes Ania (go Taq Green, Promega, Madison, Wis. • 1. 95° C. 5 minutes • 2. 95° C. 30 seconds • 3. 57° C. 30 seconds • 4. 72° C. 30 seconds • 5. Repeat from step 2 35 times • 6. 72° C. 5 minutes Primers used in the PCR Assays: […]
We investigated whether the amount of the splice variants of acetylcholinesterase (AChE) changed after MPTP toxin treatment. AChE hydrolyzes acetylcholine (ACh) and thereby functions to terminate Ach-mediated neurotransmission. In many neuropathologies, the characteristics of AChE are modified in the central nervous system. We looked at the AChE-S and ACHE-R splice variants. The AChE-S mRNA produces the canonical synaptic tetrameric form of the enzyme. AChE-S is formed by skipping exon 5 such that the final mRNA is composed of exons 1-4 and exon 6 (FIG. 5). The protein produced from this transcript has a cysteine-containing carboxyl-terminus that allows for the formation of the tetramer. AChE-R, produces a read-through transcript in which a downstream splice donor is spliced to the intron 4 3′ splice site such that exon 5 is included in the mRNA (FIG. 6). This produces a protein with a different carboxyl-terminus than the synaptic form. […]

Test [3] relates to NDUFS4 splice variants (NDUFS4 and NDUFS4-SV3 mRNA). The experiment in a line: NDUFS4 splice variant mRNA levels in MPTP-treated mice, RT-PCR. The class given is in vivo, mouse. The following applies: chronic MPTP treatment.
Text: as §1, §2, §3, §4
• 1. 95° C. 8 minutes • 2. 95° C. 30 seconds • 3. 57° C. 30 seconds • 4. 72° C. 30 seconds • 5. Repeat from step 2 35 times • 6. 72° C. 10 minutes RGS9 (SYBR green, Applied Biosystems, Foster City, Calif.) • 1. 95° C. 8 minutes • 2. 95° C. 30 seconds • 3. 54° C. 30 seconds • 4. 72° C. 30 seconds • 5. Repeat from step 2 35 times • 6. 72° C. 10 minutes AChE (go Taq Green, Promega, Madison, Wis.) • 1. 95° C. 5 minutes • 2. 95° C. 30 seconds • 3. 61° C. 30 seconds • 4. 72° C. […]

Test [4] has as its system Ania6 splice variants (Ania6 and Ania6a mRNA). The experiment in a line: Ania6 splice variant mRNA levels in blood of MPTP-treated mice, RT-PCR. The class given is in vivo, mouse. The following applies: chronic MPTP treatment.
Text: as §1, §2
(§5) RNA from blood samples obtained as described in Example 2 was separated on a 1.8% agarose gel and stained with 5 μl of ethidium bromide (10 mg/ml stock) diluted into 10 ml of a TAE buffer (pH 8.5 40 mM Tris.acetate, 2 mM Na2EDTA.2H2O. After staining, the RNA was visualized on a UV light box and the 18S RNA band was quantified. The image was captured using a Kodak EDAS290 system (Kodak, Rochester, N.Y.) and the Kodak 1D Image Analysis software (Kodak, Rochester, N.Y.) was used to quantify. Other similar cameras and analysis softwares will also work. […]

Test [5] relates to RGS9 splice variants (RGS9-1 and RGS9-2 mRNA). Description: RGS9 splice variant mRNA levels in blood of MPTP-treated mice, RT-PCR. In kind it is in vivo, mouse.
Text: as §1, §2, §5

For test [6], the system named is FosB splice variants (FosB and ΔFosB mRNA). The experiment in a line: FosB splice variant mRNA levels in blood of MPTP-treated (Parkinsonian) mice, RT-PCR. In kind it is in vivo, mouse. Conditions: vs vehicle.
Text: as §1, §2, §5

[7] abbreviates: chronic MPTP treatment, 3 days and 3 weeks after.

On to `CN1CC=C(c2ccccc2)CC1` [MPTP, 1-methyl-4-phenyl-1,2,3,6-tetrahydropyridine], for which, in test [1] (function Apoptosis), the “Change of BAX M, isoform-a transcript” value is listed as “Up”. The “Change of Cyclin B2 transcript” value in test [1] (function Cell cycle) is listed as “Down”. Further, the “Change of Alpha-synuclein transcript” value in test [1] (function PD-associated) is “Up”. Also, in test [1] (function Receptors), the “Change of Ach N receptor transcript” value was “Up”, the “Change of IL-1 recept II transcript” value is recorded as “Up”, the “Change of IL-2 rp-G transcript” value is “Up” and the “Change of IL-10 transcript” value is “Up”. The “Change of Gtase transcript” value in test [1] (function Stress) is “Down”. In test [2] (acute MPTP treatment), the “AChE-R mRNA/18S RNA” value was “increases” and the “AChE-R mRNA/AChE-S mRNA” value is on record as “increases”. Besides, in test [2] (chronic MPTP treatment), the “AChE-R mRNA/AChE-S mRNA” value is given as “decreases” and the “AChE-S mRNA/18S RNA” value is reported as “increases”. In test [2] (setting [7]), the “AChE-R mRNA/18S RNA” value is “decreases and remains lower for 3 weeks”. Further, the “NDUFS4 mRNA/18S RNA” value in test [3] is “decreases”. For the same molecule, in test [3] (3 days and 3 weeks after), the “NDUFS4-SV3 mRNA/18S RNA” value is “decreases after chronic MPTP treatment and remains lower for 3 weeks”; the “NDUFS4-SV3 mRNA/NDUFS4 mRNA” value was “decreases after chronic MPTP treatment and remains lower for 3 weeks”. Further, in test [4], the “Ania6a mRNA/18S RNA” value is given as “increases”. The “Ania6 mRNA/18S RNA” value in test [4] (3 days and 3 weeks after) is “decreases after chronic MPTP treatment and remains lower for 3 weeks”. The “RGS9-2 mRNA/18S RNA” value in test [5] (acute MPTP treatment) is listed as “decreases”. Further, the “RGS9-2 mRNA/RGS9-1” value in test [5] (setting [7]) is “decreases after chronic MPTP treatment and remains lower for 3 weeks”. Besides, in test [6] (acute MPTP treatment (20 mg/kg, 4 times, every 2 hours), euthanized 3 days later), the “FosB mRNA/18S RNA” value is “decreases”. The “ΔFosB mRNA/18S RNA” value in test [6] (chronic MPTP (25 mg/kg s.c.) and probenecid, twice each week for 5 weeks) is “decreases”.
